2 compounds from patent US20250101062A1, “ANTIMICROBIAL PEPTIDES” (Board of Regents of the University of Nebraska, priority 2023, published 2025) can be followed below.

≈ marks a conversion by molar mass, not a printed value. Read-outs that look alike come from different tables or passages of the source. Where a SMILES comes first, the peptide text is derived from it.

In one test the test system is S. aureus USA300 LAC. The test can be described thus: microbe, parasite or virus in culture. The class given is cell-based, Staphylococcus aureus. How it is done:
(§1) The following resistant bacterial clinical strains were used in this study: S. aureus USA300 LAC, S. epidermidis 1457, E. coli E423-17, P. aeruginosa E411-17, K. pneumoniae E406-17, and A. baumannii B28-16. While the S. aureus USA300 strain is methicillin-resistant, most of the Gram-negative bacteria contain extended-spectrum beta-lactamase and are resistant to beta-lactam antibiotics. Peptide activity against bacteria was tested using an established lab protocol (Mishra, et al. (2017) Acta Biomater., 49:316-328). In brief, a peptide concentration gradient with twofold dilution was made in the 96-well polystyrene microplate at 10 μL per well. Bacteria were grown to the exponential phase (i.e., optical density at 600 nm≈0.5), diluted to ˜10^5 CFU/mL in different percentages of MHB, TSB, or LB, and partitioned into the 96-well microplate at 90 μL per well. […] They were diluted with autoclaved distilled water to obtain different percentages. The microplates were incubated at 37° C. overnight and read on a ChroMate™ 4300 microplate reader at 600 nm (GMI, Ramsey, MN). The peptide concentration in the wells without bacterial growth is the MIC. As is the convention, MIC values were represented as ranges.
(§2) For pH effects on peptide activity, the pH of the medium was adjusted to a targeted pH for the autoclave and then remeasured at room temperature. For salt and serum effects on peptide activity, stock NaCl solution or human serum was added to the media.
(§3) Peptide activity against bacteria were tested using the CLSI standard procedure with minor modifications (Clinical and Laboratory Standards Institute (2018) Performance standards for antimicrobial susceptibility testing, 9th ed.; Mishra, et al. (2019) Proc. Natl. Acad. Sci., 116(27):13517-13522). In brief, a peptide concentration gradient with twofold dilution was made in the 96-well polystyrene microplate at 10 μL per well. Bacteria were grown to the exponential phase (i.e., optical density at 600 nm≈0.5), diluted to ˜10^5 CFU/mL in MHB, and partitioned into the 96-well microplate at 90 μL per well. The microplates were incubated at 37° C. overnight and read on a ChroMate® 4300 Microplate Reader at 600 nm (GMI, Ramsey, MN). The peptide concentration in the wells without bacterial growth is the minimal inhibitory concentration (MIC). As the convention, MIC values were represented as ranges.
(§4) For pH effects on peptide activity, the pH of the medium was adjusted to a targeted pH for autoclave and then remeasured at room temperature. For salt and serum effects on peptide activity, stock NaCl solution or human serum were added to the media.

For a further test, the system named is MRSA USA300. The test can be described thus: microbe, parasite or virus in culture. It is filed as cell-based, Staphylococcus aureus. The protocol:
The experiment was conducted as described (Lakshmaiah et al. (2020) Proc. Natl. Acad. Sci., 117:19446-19454). Briefly, MRSA USA300 was grown to the exponential phase in MHB and diluted to OD600 0.001 (˜10^5 CFU/mL). Aliquots of 90 μL were added to a 96-well polystyrene microplate (Costar, Corning, NY) containing 10 μL of serially diluted LL-37mini, nafcillin, or daptomycin. After overnight incubation at 37° C., the plates were read at 600 nm using a ChroMate™ microplate reader (GMI, Ramsey, MN). Untreated bacterial culture and medium were included as untreated control and blank, respectively. The MIC is the lowest peptide concentration that inhibited the bacterial growth. The wells with sub-MIC levels of the peptides that retained growth approximately half the growth of the control wells were reinoculated in fresh MHB with sub-MIC concertation of peptides or antibiotics to attain exponential phase for MIC determination. In total, 17 passages of the bacterial cultures were conducted. A rapid increase in MIC is an indication of antibiotic resistance.

Test [1] in a line: Effect of MHB dilution on antibacterial activity of a panel of antibiotics. It is filed as cell-based. The note with it: MHB from 100 to 12.5%. How it is done:
FIGS. 2A-2D show biofilm disruption activity of human LL-37 (FIGS. 2A and 2B) and 17BIPHE2 (FIGS. 2C and 2D) against the 24 hour preformed biofilms of S. aureus USA300 LAC in different MHB media: 12.5% MHB (FIGS. 2A and 2C) and 100% MHB (FIGS. 2B and 2D). FIGS. 2E-2H show the treatment outcome of LL-37 (FIGS. 2E and 2F) and 17BIPHE2 (FIGS. 2G and 2H) against the 24-hour preformed biofilms of E. coli E423-17 in different MHB media: 12.5% MHB (FIGS. 2E and 2G) and 100% MHB (FIGS. 2F and 2H). […] Growth curves of S. aureus USA 300 LAC (FIGS. 2J-2K) and P. aeruginosa 152 (FIGS. 2L-2M) in 12.5%, 25%, 50% and 100% MHB or TSB medium (curves from bottom to top).
The effects of MHB dilution on the antimicrobial activity of a panel of antibiotics was also compared (FIG. 2I).

Another test deals with S. epidermidis 1457. The test can be described thus: microbe, parasite or virus in culture. It is filed as cell-based, Staphylococcus epidermidis. Conditions: read-out: Antimicrobial activity (MIC) S. epidermidis 1457. The protocol:
as §1, §3

The test system of test [2] is S. aureus USA300 LAC biofilms. The test can be described thus: Disruption of preformed biofilms in vitro (XTT). The note with it: 24 h preformed biofilm. It is filed as cell-based, Staphylococcus aureus. How it is done: (§5) Effects of Peptides on Established Biofilms in Vitro. Bacteria (S. aureus USA300 LAC and E. coli E423-17) were grown in rich TSB media overnight. A second inoculation was made the next day to reach an exponential phase (OD600˜0.4). Microtiter plates (96 wells, Corning Costar Cat no. 3595), after aliquoting with 180 μL of the culture to each well, were incubated at 37° C. for 24 hours to form biofilms in rich TSB. Media were aspirated post incubation, and the attached biofilms were washed with 1×PBS to remove the planktonic bacteria. […] Biofilms treated with water served as the positive control, while media without bacterial inoculation served as the negative control. Live cells in the biofilms were quantitated using XTT as described above. Absorbance was read at 450 nm (only media with XTT containing wells served as the blank) using a ChroMate™ microtiter plate reader. Percentage biofilm growth for the peptide was plotted by assuming 100% biofilm growth in bacterial control alone. The data were represented as mean±SD; plots were generated using GraphPad prism 7, where * indicates p<0.05, **p<0.01, and ***P<0.001, and ****p<0.0001 (one-way analyses of variance).
LL-37 is known to inhibit bacterial biofilms (Overhage, et al. (2008) Infect. Immun., 76:4176-4182). However, it was unable to disrupt preformed MRSA biofilms in rich media (Mishra, et al. (2016) ACS Med. Chem. Lett., 7:117-121). Next, it was determined whether the diluted MHB medium could be useful to detect biofilm-disrupting activity for LL-37 against MRSA. An established procedure (Mishra, et al. (2016) ACS Med. Chem. Lett., 7:117-121; Duplantier, et al. (2013) Front. Immunol., 4:143) was used wherein biofilms were formed and washed as usual to remove planktonic cells. The biofilms were then treated with peptides in 12.5% MHB for 24 hours. Finally, live cells were quantified with XTT (ATCC). FIG. 2 compares the levels of live cells of MRSA in the preformed biofilms after 24 hour treatment. […] Of note is a similar pattern for both peptides in 12.5% MHB treated at various concentrations.
Bacteria (S. aureus USA300 LAC or P. aeruginosa E411-17) were grown up in TSB media overnight. A second inoculation was made the next day to reach an exponential phase (OD600˜0.4). Microtiter plates (96 wells, Corning Costar Cat No. 3595), after aliquoting with 180 μL of the culture to each well, were incubated at 37° C. for 24 hours to form biofilms in rich TSB. Media were aspirated post incubation and the attached biofilms were washed with 1×PBS to remove the planktonic bacteria. […] Biofilms treated with water served as the positive control while media without bacterial inoculation served as the negative control. Live cells in the biofilms were quantitated using the XTT as described above. Absorbance was read at 450 nm (only media with XTT containing wells served as the blank) using a ChroMate® microtiter plate reader. Percentage biofilm growth (the plot legend is antibiofilm activity) for the peptides was plotted by assuming 100% biofilm growth in bacterial control alone. The data were represented as mean±SD, plots were generated using GraphPad prism 7, where * indicates p<0.05, ** p<0.01, and ***P<0.001, and ****p<0.0001 (one-way analyses of variance).
(In general: Formazan colour is commonly taken as a measure of viable cells.)

The subject of the next test is E. coli E423-17. The class given is cell-based, Escherichia coli. The note with it: E423-17. How it is done: as §1, §2, §3, §4
For another test, the system named is P. aeruginosa E411-17. Nature of the test: microbe, parasite or virus in culture. The class given is cell-based, Pseudomonas aeruginosa. Conditions: E411-17. How it is done: as §1, §2, §3, §4
In a further test the test system is E. coli E423-17 biofilms. The test can be described thus: Disruption of preformed biofilms in vitro (XTT). The class given is cell-based, Escherichia coli. Conditions: 24 h preformed biofilm. How it is done: as §5
In the next test the test system is A. baumannii B28-16. The class given is cell-based, Acinetobacter baumannii. Conditions: B28-16. The protocol: as §1, §3

Consider `CCOc1ccc2ccccc2c1C(=O)N[C@@H]1C(=O)N2[C@@H]1SC(C)(C)[C@@H]2C(=O)O` [Nafcillin], for which the MIC was 16 to 32 µM (≈ 6.63 to 13.3 µg/mL) in the test with S. aureus USA300 LAC (Staphylococcus aureus, MRSA / USA300, MRSA in MHB, 20% serum, read-out: Antimicrobial activity (MIC)); 16 µM (≈ 6.63 µg/mL) in the test with S. aureus USA300 LAC (Staphylococcus aureus, MRSA / USA300, pH 6.3, MRSA in MHB, pH 6.3, read-out: Antimicrobial activity (MIC)); 4 to 8 µM (≈ 1.66 to 3.32 µg/mL) with S. aureus USA300 LAC (Staphylococcus aureus, MRSA / USA300, pH 7.2, MRSA in MHB, pH 7.2, read-out: Antimicrobial activity (MIC)); 128 µM (≈ 53.1 µg/mL) with MRSA USA300 (Staphylococcus aureus, read-out: MIC after multiple passages). The “increase of MIC” value with MRSA USA300 (17 passages at sub-MIC) worked out at 32 fold. Also, in test [1], the “change in MIC with dilution of MHB” value is “small changes in MIC values”.
Consider `CC(C)C[C@H](NC(=O)[C@H](CC(N)=O)NC(=O)[C@H](CCCNC(=N)N)NC(=O)[C@@H](CC(C)C)NC(=O)[C@H](Cc1ccc(-c2ccccc2)cc1)NC(=O)[C@H](CC(=O)O)NC(=O)[C@H](CCCCN)NC(=O)[C@@H](CC(C)C)NC(=O)[C@H](CCCNC(=N)N)NC(=O)[C@H](CCC(N)=O)NC(=O)[C@@H](NC(=O)[C@@H](CC(C)C)NC(=O)[C@H](CCCNC(=N)N)NC(=O)[C@H](CCCCN)NC(=O)[C@H](Cc1ccc(-c2ccccc2)cc1)NC(=O)CN)C(C)C)C(=O)N[C@H](C(N)=O)C(C)C` [17BIPHE2] (HELM PEPTIDE1{G.[O=C([C@H](Cc1ccc(-c2ccccc2)cc1)N[*:1])[*:2]].K.R.[dL].V.Q.R.[dL].K.D.[O=C([C@H](Cc1ccc(-c2ccccc2)cc1)N[*:1])[*:2]].[dL].R.N.L.V.[am]}$$$$V2.0; N-terminus and C-terminus assumed), for which the MIC in the test with S. epidermidis 1457 was 8 µM (≈ 18 µg/mL); against S. aureus USA300 LAC (USA300) it was 2 to 4 µM; in the test with S. aureus USA300 LAC (USA300, read-out: Antimicrobial activity (MIC) S. aureus USA300), 4 µM (≈ 9.02 µg/mL). Further, the “peptide concentration showing biofilm disruption” value in test [2] (12.5% MHB) turned out to be 16 µM. The “peptide concentration at which it started to work on biofilms” value in test [2] (100% MHB) came out at 8 µM. In [2] (100% MHB, treated at 16 μM for 24 h), the “live bacteria remained in the biofilms” value is on record as roughly 30%. In addition, the “Antimicrobial activity (MIC)” value in the test with E. coli E423-17 was less than 2 µM. The “Antimicrobial activity (MIC) E. coli E423-17” value with E. coli E423-17 stood at 4 µM. Also, in the test on P. aeruginosa E411-17, the “Antimicrobial activity (MIC) P. aeruginosa E411-17” value was 4 µM. Moreover, the figures for the effect on biofilms result with E. coli E423-17 biofilms (12.5% MHB) and with E. coli E423-17 biofilms (100% MHB) were “dose-dependent antibiofilm effect” and “subtle effect”, respectively. Moreover, the “Antimicrobial activity (MIC) A. baumannii B28-16” value with A. baumannii B28-16 turned out to be 4 µM.
